Laboratory results published in patent publication US7195752B2, “Surfactant compounds and uses thereof” (Glaxo Group Limited, priority 2001, dated 2007).

Legend:
[1] = Particle size by image analysis (Galai CIS-100) of salmeterol xinafoate HFA 134a suspension; assay type: physicochemical; settings: salmeterol xinafoate 25 μg per actuation in HFA 134a, 10% w/w (relative to drug) surfactant; mean of 4 determinations
Protocol: (§1) Salmeterol xinafoate formulations in HFA 134a, of strength 25 μg per actuation, and 10% w/w (relative to drug) of the relevant surfactant compound of formula (I) were prepared using salmeterol xinafoate (5.8 mg), HFA 134a (12 g) and the relevant compound (0.58 mg). The control was prepared without the addition of a surfactant.
In this measurement, particle size is represented as the equivalent diameter of a circle of equal area to the object. The mean is the average of 4 determinations. The particle size measurement was obtained by transferring the suspensions to a presurised cell, and video-imaging the sample under shear via a microscope objective.
The equivalent diameter is defined as the diameter of a circle of equal area to the object.
The mean equivalent diameter can be weighted by number, length or volume. e.g. For three particles with equivalent diameters of x, y and z: […]

[2] = Content uniformity by dose through use testing of salmeterol xinafoate HFA 134a inhalers; assay type: physicochemical; settings: 10% w/w surfactant
Protocol: as §1
The content uniformity of the formulation, the preparation of which is described above, was assessed by dose through use testing. Testing was performed on 10 cans/inhalers at “beginning of use” (BoU) and “end of use” (EoU). After each inhaler had been primed (4 shots fired to waste), actuations 1 and 2 (BoU) were collected. The next 116 actuations of each inhaler were then fired to waste using an automated method and actuations 119 and 120 (EoU) collected.
The assesment of content uniformity was performed intially (following sample preparation). The results are quoted in Table 2 as the mean of the two BoU actuations for 10 inhalers (1+2 for 10 inhalers) and the mean of two EoU actuations for the said 10 inhalers (119+120 for the same 10 inhalers) together with the percentage relative standard deviation (% RSD).

For `O=C(O)COCCCCCCC(F)(F)C(F)(F)F` [Example 5, [(7,7,8,8,8-Pentafluorooctyl)oxy]acetic acid], the “Mean Length weighted diameter” value [1] was 13.8 μm, the “rise in dose from beginning to end of use” value ([2]; EoU minus BoU dose, 10 inhalers, salmeterol xinafoate in HFA 134a) was 1.8 µg and the BoU dose ([2]; beginning of use, mean of actuations 1+2 for 10 inhalers, salmeterol xinafoate 25 μg per actuation in HFA 134a, initial) was 19.0 µg. For the same compound, the EoU dose ([2]; end of use, mean of actuations 119+120 for 10 inhalers, salmeterol xinafoate 25 μg per actuation in HFA 134a, initial) was 21.8 µg.
